Values after ≈ are worked out from the molar mass of the structure shown. One block for each molecule: values may come before it.
Key:
KB = assay: Cytotoxicity in human KB cells assessed as reduction in cell viability; type: functional, cell-based
K562 [1] = assay: Antiproliferative activity against human K562 cells incubated for 48 hrs by MTT assay; type: functional; settings: K562, 48 h
A549 [2] = assay: Antiproliferative activity against human A549 cells incubated for 48 hrs by MTT assay; type: functional, cell-based; settings: A549, 48 h
Bel-7402 = assay: Antiproliferative activity against human Bel7402 cells incubated for 48 hrs by MTT assay; type: functional; settings: Bel-7402, 48 h
HeLa [3] = assay: Antiproliferative activity against human HeLa cells incubated for 48 hrs by MTT assay; type: functional, cell-based
PC-3 [4] = assay: Antiproliferative activity against human PC3 cells incubated for 48 hrs by MTT assay; type: functional; settings: PC-3, 48 h
HeLa [5] = assay: Antiproliferative activity against human HeLa cells incubated for 24 hrs by MTT assay; type: functional, cell-based
A549 [6] = assay: Antiproliferative activity against human A549 cells incubated for 24 hrs by MTT assay; type: functional, cell-based; settings: A549, 24 h
MCF7 [7] = assay: Antiproliferative activity against human MCF7 cells incubated for 24 hrs by MTT assay; type: functional, cell-based; settings: MCF7, 24 h
HCT-116 = assay: Antiproliferative activity against human HCT116 cells incubated for 48 hrs by MTT assay; type: functional, cell-based; settings: HCT-116, 48 h
MCF7 [8] = assay: Antiproliferative activity against human MCF7 cells incubated for 48 hrs by MTT assay; type: functional, cell-based; settings: MCF7, 48 h
A549 [9] = assay: Cytotoxicity in human A549 cells assessed a reduction in cell viability incubated for 48 hrs by MTT assay; type: functional, cell-based; settings: A549, 48 h
U-87 MG = assay: Cytotoxicity in human U87MG cells assessed as reduction in cell viability incubated for 48 hrs by MTT assay; type: functional, cell-based, U-87MG ATCC
A549 [10] = assay: Cytotoxicity in human A549 cells assessed as reduction in cell viability incubated for 48 hrs by MTT assay; type: functional, cell-based; settings: A549, 48 h
PC-3 [11] = assay: Cytotoxicity in human PC3 cells assessed as reduction in cell viability incubated for 48 hrs by MTT assay; type: functional, cell-based; settings: PC-3, 48 h
HT-29 [12] = assay: Cytotoxicity in human HT-29 cells assessed as reduction in cell viability incubated for 48 hrs by MTT assay; type: functional, cell-based; settings: HT-29, 48 h
HEK293 [13] = assay: Cytotoxicity in HEK293 cells at 100 uM by MTT assay; type: cell-based; settings: human, hek293, 100 µM
MDA-MB-231 [14] = assay: Growth inhibition of human MDA-MB-231 cells at 10 uM; type: functional; settings: read-out: GI
A498 = assay: Growth inhibition of human A498 cells at 10 uM; type: functional; settings: read-out: GI
DU-145 = assay: Antiproliferative activity against human DU145 cells incubated for 48 hrs by MTT assay; type: functional, cell-based; settings: DU-145, 48 h
HUVEC = assay: Antiproliferative activity against human HUVEC cells incubated for 48 hrs by MTT assay; type: functional, cell-based
MDA-MB-231 [15] = assay: Antiproliferative activity against human MDA-MB-231 cells incubated for 48 hrs by MTT assay; type: functional, cell-based; settings: MDA-MB-231, 48 h
SK-OV-3 = assay: Antiproliferative activity against human SKOV3 cells incubated for 48 hrs by MTT assay; type: functional, cell-based; settings: SK-OV-3, 48 h
HT-29 [16] = assay: Antiproliferative activity against human HT-29 cells incubated for 48 hrs by MTT assay; type: functional, cell-based; settings: HT-29, 48 h
HEK293 [17] = assay: Antiproliferative activity against HEK293 cells incubated for 48 hrs by MTT assay; type: cell-based; settings: Homo sapiens, HEK293, 48 h
K562 [18] = assay: Cytotoxicity in human K562 cells assessed as reduction in cell viability incubated for 48 to 72 hrs by trypan blue dye exclusion assay; type: functional, cell-based
REH = assay: Cytotoxicity in human REH cells assessed as reduction in cell viability incubated for 48 to 72 hrs by trypan blue dye exclusion assay; type: functional, cell-based
B16-F10 = assay: Antiproliferative activity against mouse B16F10 cells incubated for 48 hrs by MTT assay; type: functional, cell-based; settings: B16-F10, 48 h
[19] = biological target: Epidermal growth factor receptor (Homo sapiens, UniProt P00533); assay: Inhibition of 6x-His-tagged human EGFR cytoplasmic domain (645 to 1186 amino acids) assessed as reduction in autophosphorylation pre-incubated for 10 mins and measured after 1 hr by DELFIA/time-resolved fluorometry
Chain of Epidermal growth factor receptor (P00533 whole entry, the tested form may be a part): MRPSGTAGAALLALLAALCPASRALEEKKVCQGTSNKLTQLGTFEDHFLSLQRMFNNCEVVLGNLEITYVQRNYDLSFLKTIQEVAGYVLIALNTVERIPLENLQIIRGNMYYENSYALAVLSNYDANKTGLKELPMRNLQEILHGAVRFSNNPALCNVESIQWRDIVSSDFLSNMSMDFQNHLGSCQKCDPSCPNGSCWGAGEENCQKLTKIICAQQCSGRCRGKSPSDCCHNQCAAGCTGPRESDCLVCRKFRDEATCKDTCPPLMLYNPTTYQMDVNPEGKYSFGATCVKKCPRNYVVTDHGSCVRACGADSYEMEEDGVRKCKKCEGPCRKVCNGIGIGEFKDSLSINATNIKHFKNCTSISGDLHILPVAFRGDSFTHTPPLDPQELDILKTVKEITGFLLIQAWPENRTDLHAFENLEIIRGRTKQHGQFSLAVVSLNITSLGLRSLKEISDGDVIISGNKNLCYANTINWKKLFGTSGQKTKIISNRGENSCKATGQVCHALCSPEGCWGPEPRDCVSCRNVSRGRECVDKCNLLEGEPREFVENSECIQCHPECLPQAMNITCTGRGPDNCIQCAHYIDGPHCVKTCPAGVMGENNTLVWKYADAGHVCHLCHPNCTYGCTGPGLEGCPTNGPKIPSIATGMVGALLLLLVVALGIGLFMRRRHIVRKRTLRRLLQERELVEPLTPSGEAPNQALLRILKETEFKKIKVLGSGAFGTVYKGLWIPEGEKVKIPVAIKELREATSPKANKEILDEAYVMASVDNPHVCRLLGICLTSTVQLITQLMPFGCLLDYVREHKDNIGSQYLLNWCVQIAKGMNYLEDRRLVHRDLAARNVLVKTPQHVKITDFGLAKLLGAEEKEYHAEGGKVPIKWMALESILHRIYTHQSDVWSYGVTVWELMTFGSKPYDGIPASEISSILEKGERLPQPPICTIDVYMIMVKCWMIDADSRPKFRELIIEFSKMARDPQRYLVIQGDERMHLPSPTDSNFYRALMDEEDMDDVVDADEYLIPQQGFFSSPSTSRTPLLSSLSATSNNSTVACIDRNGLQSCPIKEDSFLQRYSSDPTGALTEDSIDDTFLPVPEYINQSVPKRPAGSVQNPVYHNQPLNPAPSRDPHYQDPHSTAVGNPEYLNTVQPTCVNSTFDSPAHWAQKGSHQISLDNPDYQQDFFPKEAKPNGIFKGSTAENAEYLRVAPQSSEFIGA

MCF7 [20] = assay: Cytotoxicity in human MCF7 cells assessed as reduction in cell viability incubated for 48 hrs by MTT assay; type: functional, cell-based; settings: MCF7, 48 h
MDA-MB-231 [21] = assay: cells; settings: Homo sapiens, MDA-MB-231, 24 h
Description: Cytotoxicity in human MDA-MB-231 cells assessed as reduction in cell viability incubated for 24 hrs by MTT assay

Structure (SMILES): O=C(/C=C/c1ccc(/C=C/C(=O)c2cccc3c2C(=O)c2ccccc2C3=O)cc1)c1ccccc1
IC50 (KB): 0.66 µg/mL (≈ 1.41 µM)

GI50 (K562 [1]): 26 to 35 nM | GI50 (A549 [2]): 26 to 35 nM | GI50 (Bel-7402): 26 to 35 nM | GI50 (HeLa [3]): 26 to 35 nM | GI50 (PC-3 [4]): 26 to 35 nM
Structure (SMILES): COc1cc2c(c(OC)c1OC)C/C(=C\c1cccc3[nH]ccc13)C2=O

IC50 (HeLa [5]): 320 nM | IC50 (A549 [6]): 380 nM | IC50 (MCF7 [7]): 230 nM
Structure (SMILES): COc1ccc(Cc2nnc(COc3ncnc4ccccc34)o2)cc1OC

IC50 (HCT-116): 510 to 1290 nM | IC50 (A549 [2]): 510 to 1290 nM | IC50 (MCF7 [8]): 510 to 1290 nM | IC50 (HeLa [3]): 510 to 1290 nM
Structure (SMILES): COc1ccc(N/C=C/C(=O)c2cccnc2Nc2cc(OC)c(OC)c(OC)c2)cc1

Structure (SMILES): COc1ccc(C(=O)/C=C/c2cc3c([nH]c4ccccc43)c(-c3ccc(OC)c(OC)c3)n2)cc1
IC50 (A549 [9]): < 10000 nM

Structure (SMILES): COc1cc(-c2nc(/C=C/C(=O)c3cc(OC)c(OC)c(OC)c3)cc3c2[nH]c2ccccc23)ccc1F
IC50 (A549 [9]): < 10000 nM

Structure (SMILES): COc1ccc(Cn2cc(C(=O)c3cn(-c4ccccc4)nc3-c3ccc(Cl)cc3)nn2)cc1OC
IC50 (U-87 MG): 860 nM | IC50 (A549 [10]): 1930 nM | IC50 (PC-3 [11]): 3710 nM | IC50 (HT-29 [12]): 2420 nM

Structure (SMILES): COc1ccc(-c2nc(/C=C/C(=O)c3ccc([N+](=O)[O-])cc3)cc3c2[nH]c2ccccc23)cc1OC
IC50 (A549 [9]): < 10000 nM

Structure (SMILES): COc1ccc(C(=O)/C=C/c2cc3c([nH]c4ccccc43)c(-c3ccc(F)cc3)n2)cc1
IC50 (A549 [9]): < 10000 nM

Structure (SMILES): COc1ccc(-c2cn3c(-c4ccc(OC)cc4)cnc3c(Oc3ccc4c(C)cc(=O)oc4c3)n2)cc1
Activity (HEK293 [13]): 17% | inhibition of growth at 10 µM (MDA-MB-231 [14]): 93% | inhibition of growth at 10 µM (A498): 90%

IC50 (DU-145): 20 nM | IC50 (MDA-MB-231 [15]): 1.4 nM | IC50 (SK-OV-3): 3.4 nM
Structure (SMILES): CC12CCC(OC(=O)CCC(=O)OCCOc3no[n+]([O-])c3S(=O)(=O)c3ccccc3)CC1=CCC1C2CCC2(C)c3c(cnn3-c3ccccc3)CC12 (stereo unspecified)
IC50 (HUVEC): 3.5 nM

Structure (SMILES): Nc1ccc(C(=O)/C=C/c2cc3c([nH]c4ccccc43)c(-c3ccc(F)cc3)n2)cc1
IC50 (A549 [9]): < 10000 nM

IC50 (DU-145): 100 nM | IC50 (A549 [2]): 1100 nM | IC50 (HT-29 [16]): 200 nM
Structure (SMILES): O=C(c1cn(Cc2cccc(Oc3ccccc3)c2)nn1)c1cccnc1Nc1ccc(F)cc1
IC50 (HEK293 [17]): 59600 nM

Structure (SMILES): COc1cc(C(=O)N/N=C2\C(=O)Nc3ccc(C)cc32)cc(OC)c1OC
IC50 (K562 [18]): 2000 nM | IC50 (REH): 500 nM

Structure (SMILES): COc1cc(-c2nc(/C=C/C(=O)c3ccc([N+](=O)[O-])cc3)cc3c2[nH]c2ccccc23)ccc1F
IC50 (A549 [9]): < 10000 nM

IC50 (B16-F10): 90 nM | IC50 (MCF7 [8]): 560 nM | IC50 (HeLa [3]): 290 nM | IC50 [19]: 9 nM
Structure (SMILES): O=C1CSC(N2N=C(c3ccncc3)CC2c2ccc(Br)cc2)=N1 (stereo unspecified)

Structure (SMILES): COc1ccc(C(=O)/C=C/c2cc3c([nH]c4ccccc43)c(-c3ccc(F)c(OC)c3)n2)cc1
IC50 (A549 [9]): < 10000 nM

Structure (SMILES): COc1cc(-c2nc(/C=C/C(=O)c3ccc(N)cc3)cc3c2[nH]c2ccccc23)cc(OC)c1OC
IC50 (A549 [9]): < 10000 nM

Structure (SMILES): O=Cc1c(-c2cc3cc(Br)ccc3oc2=O)[nH]c2ccccc12
IC50 (MCF7 [20]): 7400 nM

Structure (SMILES): COc1cc(-c2nc(/C=C/C(=O)c3ccc([N+](=O)[O-])cc3)cc3c2[nH]c2ccccc23)cc(OC)c1OC
IC50 (A549 [9]): < 10000 nM

Structure (SMILES): COc1cc(C(=O)/C=C/c2cc3c([nH]c4ccccc43)c(-c3ccc(F)cc3)n2)cc(OC)c1OC
IC50 (A549 [9]): < 10000 nM

IC50 (MDA-MB-231 [21]): 3210 nM
Structure (SMILES): CCCC(CC)NC(=O)c1c(C)[nH]c(/C=C2\C(=O)Nc3nc(C)c(O)c(C)c32)c1C (stereo unspecified)
